# PMC4138991, “Building a Better Dynasore: The Dyngo Compounds Potently Inhibit Dynamin and Endocytosis” (Traffic (Copenhagen, Denmark), 2013)
# “Also recorded” adds a separate entry of the source. Read-outs that look alike come from different tables or passages of the source.
# Legend:
# [1] = system: CT-555 uptake in NIH3T3 cells; assay type: cell-based; details: NIH3T3, 20, 50 or 80 μM
# [2] = system: Tfn-A594 uptake in U2OS cells; experiment: Automated quantitative CME assay: Tfn-A594 uptake; assay type: cell-based; details: for recovery of normal non-neuronal CME after wash out: 10 μM for 30 min; for fold less potent CME inhibition in presence of serum protein: 5 or 10% FBS or 1% BSA versus none; for IC50: Homo sapiens
# Method: To determine whether the Dyngo compounds are widespread cell‐permeable and endocytosis inhibitors, CME of fluorescent Tfn was compared in an automated quantitative endocytosis assay in U2OS cells. The assay consisted of over 1200 cells under serum‐free conditions; after preincubation with each analog for 30 min the uptake of fluorescent Tfn was measured. We refer to this endocytosis as non‐neuronal CME to distinguish it from CME of synaptic vesicles in presynaptic terminals of neurons, which is referred to as synaptic vesicle endocytosis (SVE). In these cells, Tfn uptake is presumed to be mediated by dynamin II, because this is the only isoform of dynamin that they express, as determined by western blot (Figure S6). […] There was no apparent correlation between in vitro and in‐cell activity, with potent dynamin‐active compounds like 1a and 14a having no effect on non‐neuronal CME (Table 1). This might be explained by low membrane permeability of these analogs, their cellular metabolism or rapid cellular efflux mechanisms.
# Quantitative analysis of the inhibition of Alexa 594‐Tfn endocytosis in U2OS cells was performed on large numbers of serum‐starved cells as described 10. Synaptic vesicle recycling in cultured CGNs was monitored using FM1‐43 as described 57 (see Supporting Information). Dynamin‐independent endocytosis was measured using internalization of CT in NIH3T3 cells (using Tfn as a control) as described previously 58 with minor changes (see Supporting Information). The average number of cells for each data point was ˜1200. IC50 values were calculated using GraphPad Prism 5 and data were expressed as mean ± 95% confidence interval (CI) for three wells and ˜1200 cells.
# HeLa cells [3] = experiment: Trypan blue exclusion cell viability and proliferation assay; assay type: cell-based; details: 20 h exposure, with or without serum
# Method: Cell viability and membrane integrity was assessed by the Trypan Blue exclusion assay. Cells were seeded into 10 cm dish at a density of 1 × 10^5 cells per dish. […] This was carried out in the presence and absence of FBS.
# [4] = target: T1, AP-2 alpha ear binding to amphiphysin 1 (Mus musculus, UniProt P17427); experiment: ELISA-based AP-2 binding assay
# T1 construct: GST-AP-2 α-appendage (amino acids 702–938); made in house; host or cells: bacteria
# T1 sequence (P17427 702-938): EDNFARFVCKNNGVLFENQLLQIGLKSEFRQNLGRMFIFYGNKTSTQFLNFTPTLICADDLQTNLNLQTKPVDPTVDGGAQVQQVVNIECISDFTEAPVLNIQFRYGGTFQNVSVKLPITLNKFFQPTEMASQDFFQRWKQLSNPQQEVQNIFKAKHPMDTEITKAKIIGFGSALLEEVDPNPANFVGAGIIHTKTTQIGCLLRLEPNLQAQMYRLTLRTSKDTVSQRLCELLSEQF
# Method: The assay for the interaction of amphiphysin with either clathrin or AP2 was based on our previous report (11). Bacterially expressed recombinant purified His6-tagged amphiphysin 1 PRD+CLAP domains (amino acids 250-578) in screening buffer (20 mM HEPES, pH 7.4, 50 mM NaCl, 1 mM DTT, 1 mM PMSF) was added to a 384 well ELISA plate (high-binding PS Microplate, Greiner Bio-One) and bound to the plastic at room temperature for 1 hr. Non-specific binding was reduced by overnight incubation with 50 µL blocking buffer (20 mM HEPES, pH 7.4, 50 mM NaCl, 1 mM PMSF, 2 % BSA, 2.5 % skim milk) at 4 °C. Following extensive washes (with 20 mM HEPES, pH 7.4, 50 mM NaCl, 0.05 % Tween 20), chemical compounds diluted in DMSO (10 µL) were added and incubated together with bacterially expressed recombinant GST-tagged clathrin heavy chain TD (amino acids 1-364) or GST-AP-2 α-appendage (amino acids 702–938) for 1 hr at room temperature in screening buffer. This incubation was in the presence of test compounds diluted in 1% DMSO or 1% DMSO alone as a control. After 3 washes, horseradish peroxidase-coupled anti-GST antibodies were added in screening buffer and the plate incubated for 15 min at room temperature. Following additional washes, 50 µL TMB (3,3′,5,5′-tetramethylbenzidine) (Pierce Biotechnology) chromogenic substrate of horseradish peroxidase was added and the plate was incubated for 20 min before the reaction was terminated by adding 50 µL 1 N sulfuric acid to produce a yellow colour. The amount of bound protein was determined by spectrophotometric measurement in a plate reader in triplicates. Relative binding was calculated as a percentage of the DMSO control.
# [5] = system: mitochondria in HeLa cells; experiment: Mitotracker labeling of mitochondria, live confocal imaging; assay type: cell-based; details: 30 μM 4a, 30 μM 6a or 100 μM dynasore, 30 min
# From the text: Dynasore was originally reported to inhibit the GTPase activity of dynamin‐like protein 1 (Dlp‐1), which is involved in mitochondrial fission. This raises the possibility that dynasore and the Dyngo compounds may affect mitochondrial morphology and/or dynamics in cells. We investigated this by labeling mitochondria in live HeLa cells using Mitotracker Green FM and imaging the cells over time using confocal microscopy. These cells stably expressed an mCherry‐conjugated form of the nuclear histone protein H2B, providing contrast to the green mitochondria.
# HeLa cells were used that had been stably transduced to express H2B-mCherry. Cells were cultured at 37 °C, 5% CO2 in RPMI medium with 10% FBS. Expression of the transgene was maintained by puromycin selection. The day before imaging, cells were seeded on 4-chambered, glass bottomed 35 mm round dish at a density of 1 x 10^5 cells per chamber. The next day, cells were washed 4x in PBS and then incubated either in RPMI + 10% FBS or RPMI alone for 4 h. Medium was then removed and replaced with Mitotracker green-FM (150 nM) diluted in Hank’s buffered salt solution. Cells were incubated in Mitotracker for 20 min and then returned to RPMI either with or without serum. Cells were then imaged in a Yokugawa CV1000 Cell Voyager live cell confocal system prior to the application of compounds. Compounds were then applied: control samples received 1% DMSO, while test samples received 4a, 6a or dynasore (final DMSO concentration of 1%). Cells were incubated for at 37 °C, 5% CO2 and then images acquired over 2 h at 6 min intervals. 6 images were taken of each test condition.
# HeLa cells [6] = experiment: LDH toxicity assay; assay type: cell-based; details: 8-h exposure, with or without serum
# Method: Cytotoxicity was assayed by determination of lactate dehydrogenase (LDH) activity. HeLa cells were seeded in 96 well plates as described previously (11) Asynchronously growing cells were treated in the presence or absence of MiTMAB or the indicated Dyngo compound in the presence and absence of FCS at the indicated concentration for 8h. The supernatant (50 μL) was added to 100 μL of LDH assay reagent (Sigma- Aldrich) and the reaction was allowed to develop for 20 min. Absorbance was measured at 490 nm and 690 nm (plate background absorbance). Values were normalized to drug/media background value and toxicity was calculated as a % of a 100% lysed cell control.
# [7] = then wash out up to 1 h / 60 min
# [8] = Tfn-A594 uptake, U2OS, 30-min preincubation, serum-free, read-out: CME IC50
# [9] = U2OS, 1 h incubation, 0.1% BSA, read-out: CME IC50, 0.1% BSA
# [10] = U2OS, 1 h incubation, 1% BSA, read-out: CME IC50, 1% BSA
# [11] = U2OS, 1 h incubation, 1% FBS, read-out: CME IC50, 1% FBS
# [12] = U2OS, 1 h incubation, 5% FBS, read-out: CME IC50, 5% FBS
# [13] = U2OS, 1 h incubation, 10% FBS, read-out: CME IC50, 10% FBS
# [14] = U2OS, 1 h incubation, absence of FBS or BSA, read-out: CME IC50, 1 h
SMILES,effect on dynamin-independent endocytosis of cholera toxin [1],recovery of normal non-neuronal CME after wash out ([2]; then 10 min after removal) [%],"recovery of normal non-neuronal CME after wash out [2, 7]",fold less potent CME inhibition in presence of serum protein [2],"IC50 [2, 8] [µM]","IC50 [2, 9] [µM]","IC50 [2, 10] [µM]","IC50 [2, 11] [µM]","IC50 [2, 12] [µM]","IC50 [2, 13] [µM]","IC50 [2, 14] [µM]","preincubation time required for complete abolition of Tfn uptake ([2]; U2OS, 10 μM) [min]","shortest preincubation at which inhibition of CME was observed ([2]; U2OS, 10 μM) [min]",cell membrane integrity / viability by trypan blue exclusion (HeLa cells [3]),times less potent on AP-2 binding than for dynamin I inhibition [4] [times],"IC50 ([4]; ELISA, n = 1 in triplicate) [µM]",mitochondrial morphology [5],generalized cytotoxicity by LDH activity (HeLa cells [6]),"times more potent than dynasore in CME assay ([2]; same conditions, U2OS Tfn uptake)","IC50 AP-2 alpha ear binding to amphiphysin 1 ([4]; ELISA, n = 1 in triplicate)"
"O=C(N/N=C/c1cc(O)c(O)cc1O)c1cc2ccccc2cc1O [4a, (E)-3-Hydroxy-N'-(2,4,5-trihydroxybenzylidene) -2-naphthohydrazide]",no effect; also recorded: much less effect; also recorded: does not block,70,over 80%,at least 20 fold,5.7 ± 1,44,83 ± 12,23.7 ± 3.2,102,115 ± 7.5,6.3 ± 3.6,30,5,do not affect cell viability,~1000,362,did not mediate any changes in mitochondrial morphology,did not exhibit generalized cytotoxicity,,
"O=C(N/N=C/c1cccc(O)c1O)c1cc2ccccc2cc1O [6a, (E)-N'-(2,3-Dihydroxybenzylidene)-3-hydroxy-2-naphthohydrazide]",no effect,,70%,at least 20 fold,5.8 ± 0.8,46,281,16.5,78 ± 7,108 ± 15,3.3 ± 0.6,,,do not affect cell viability,,,appeared to cause mitochondrial fragmentation,did not exhibit generalized cytotoxicity,six times more potent,no effect
"O=C(N/N=C/c1ccc(O)c(O)c1)c1cc2ccccc2cc1O [Dynasore, (E)-N'-(3,4-Dihydroxybenzylidene)-3-hydroxy-2-naphthohydrazide]",much less effect,,,,34.7 ± 5.1,277,235,57.8,650,532,22.2 ± 6,,,do not affect cell viability,,,did not mediate any changes in mitochondrial morphology,did not exhibit generalized cytotoxicity,,no effect
